Holding throughout (type): binding
What all share (conditions): Compound Concentration 10 µM

Experiment [1] addresses T1, panel of 442 kinases (Homo sapiens, UniProt P54762).
T1 construct: purchased KINOMEscan
T1 sequence (P54762 18-984): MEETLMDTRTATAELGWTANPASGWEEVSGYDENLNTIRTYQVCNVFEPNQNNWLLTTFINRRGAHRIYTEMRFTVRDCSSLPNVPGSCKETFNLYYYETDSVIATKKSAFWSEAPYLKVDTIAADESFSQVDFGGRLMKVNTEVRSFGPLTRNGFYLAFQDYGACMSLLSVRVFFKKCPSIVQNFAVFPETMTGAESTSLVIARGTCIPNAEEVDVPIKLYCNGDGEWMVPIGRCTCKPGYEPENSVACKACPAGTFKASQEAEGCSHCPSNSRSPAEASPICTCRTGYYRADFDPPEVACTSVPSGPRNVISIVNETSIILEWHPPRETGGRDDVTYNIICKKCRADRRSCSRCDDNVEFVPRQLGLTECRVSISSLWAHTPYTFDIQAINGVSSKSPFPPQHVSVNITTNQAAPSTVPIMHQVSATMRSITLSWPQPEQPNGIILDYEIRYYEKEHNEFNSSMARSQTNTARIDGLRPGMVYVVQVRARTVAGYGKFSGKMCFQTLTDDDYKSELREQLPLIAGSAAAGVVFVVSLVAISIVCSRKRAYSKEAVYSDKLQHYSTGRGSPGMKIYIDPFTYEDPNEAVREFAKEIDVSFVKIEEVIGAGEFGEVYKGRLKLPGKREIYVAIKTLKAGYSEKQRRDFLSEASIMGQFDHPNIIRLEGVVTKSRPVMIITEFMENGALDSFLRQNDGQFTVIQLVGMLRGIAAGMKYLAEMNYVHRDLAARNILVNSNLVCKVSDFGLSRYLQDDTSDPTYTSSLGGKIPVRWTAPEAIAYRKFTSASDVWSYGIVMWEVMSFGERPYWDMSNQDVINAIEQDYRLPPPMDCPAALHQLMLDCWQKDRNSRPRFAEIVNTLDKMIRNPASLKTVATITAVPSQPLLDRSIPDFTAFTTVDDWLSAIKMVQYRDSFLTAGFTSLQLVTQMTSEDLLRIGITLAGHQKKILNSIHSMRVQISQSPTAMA
The source says:
(§1) We assessed the selectivity of members of this scaffold using the KINOMEscan methodology across a near comprehensive panel of 442 kinases [[18,27]].

For experiment [2], the target named is T2, panel of 442 kinases (Homo sapiens, UniProt P68400).
T2 construct: purchased KINOMEscan
T2 sequence (P68400 whole entry): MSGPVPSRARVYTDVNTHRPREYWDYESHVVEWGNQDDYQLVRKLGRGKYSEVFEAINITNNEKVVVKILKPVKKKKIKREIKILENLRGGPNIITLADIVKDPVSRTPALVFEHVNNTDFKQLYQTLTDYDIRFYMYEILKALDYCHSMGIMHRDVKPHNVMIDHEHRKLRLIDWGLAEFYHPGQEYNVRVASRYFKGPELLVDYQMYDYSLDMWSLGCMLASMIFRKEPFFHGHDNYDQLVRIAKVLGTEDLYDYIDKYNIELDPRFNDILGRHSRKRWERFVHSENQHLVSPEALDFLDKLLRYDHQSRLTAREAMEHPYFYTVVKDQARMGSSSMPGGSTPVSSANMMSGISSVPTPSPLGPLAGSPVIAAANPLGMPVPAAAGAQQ
Text: as §1

For experiment [3], the target named is T3, panel of 442 kinases (Homo sapiens, UniProt Q13153).
T3 construct: purchased KINOMEscan
T3 sequence (Q13153 whole entry): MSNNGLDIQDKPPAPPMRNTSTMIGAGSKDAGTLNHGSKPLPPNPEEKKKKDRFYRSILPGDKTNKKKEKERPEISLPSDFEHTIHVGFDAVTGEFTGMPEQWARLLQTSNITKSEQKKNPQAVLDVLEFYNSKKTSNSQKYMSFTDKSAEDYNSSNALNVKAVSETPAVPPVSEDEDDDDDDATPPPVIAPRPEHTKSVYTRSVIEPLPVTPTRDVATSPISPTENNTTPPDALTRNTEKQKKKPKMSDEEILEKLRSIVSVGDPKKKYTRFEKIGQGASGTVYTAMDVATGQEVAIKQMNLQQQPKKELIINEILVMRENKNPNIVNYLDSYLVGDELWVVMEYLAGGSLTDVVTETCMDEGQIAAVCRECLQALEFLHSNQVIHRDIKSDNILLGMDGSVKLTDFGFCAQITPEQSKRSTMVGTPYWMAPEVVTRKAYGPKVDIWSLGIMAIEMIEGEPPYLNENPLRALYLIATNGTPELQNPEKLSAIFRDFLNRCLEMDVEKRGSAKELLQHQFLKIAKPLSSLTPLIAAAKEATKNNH
Text: as §1

Consider `CCOc1cc(C(=O)N2CCC(N3CCN(C)CC3)CC2)ccc1Nc1ncc2c(n1)N(C1CCCC1)c1ccccc1C(=O)N2C` [Compound 26], for which the “KINOMEscan: EPHB1” value on panel of 442 kinases [1] came to 95. The “KINOMEscan: CSNK2A1” value on panel of 442 kinases [2] is on record as 89. The “KINOMEscan: PAK1” value at panel of 442 kinases [3] is 100.
As to `COc1cc(C(=O)N2CCC(N3CCN(C)CC3)CC2)ccc1Nc1ncc2c(n1)N1CCc3cccc(c31)C(=O)N2C` [Compound 24], the “KINOMEscan: PAK1” value at panel of 442 kinases [3] was determined as 85.
As to `COc1cc(C(=O)N2CCC(N3CCN(C)CC3)CC2)ccc1Nc1ncc2c(n1)N(C)c1ccccc1C(=O)N2C` [15 (LRRK2-IN-1)], the “KINOMEscan: EPHB1” value at panel of 442 kinases [1] is 98. In addition, the “KINOMEscan: CSNK2A1” value on panel of 442 kinases [2] was found to be 100. Further, at panel of 442 kinases [3], the “KINOMEscan: PAK1” value was determined as 95.
For `COc1cc(C(=O)N2CCC(N3CCN(C)CC3)CC2)ccc1Nc1ncc2c(n1)N(C1CCCC1)c1ccccc1C(=O)N2C` [Compound 25, 11-cyclopentyl-2-((2-methoxy-4-(4-(4-methylpiperazin-1-yl)piperidine-1-carbonyl)phenyl)amino)-5-methyl-5H-benzo[e]pyrimido[5,4-b][1,4]diazepin-6(11H)-one] the same measures were 95, 100 and 82.

The values are drawn from paper PMC3914206.
